{
  "source": "patent US4559362A",
  "about": "“Immunopotentiator” (Zaidan Hojin Biseibutsu Kagaku Kenkyu Kai, priority 1982, dated 1985)",
  "key": {"IMC cancer cells": {"test_system": "IMC cancer cells", "assay": "Growth inhibitory effect on cultured IMC cancer cells", "assay_type": "cell-based", "conditions": "48 hours, 37° C., read-out: concentration at which 50% of the original cells were inhibited from growth", "procedure": "(§1) A study was conducted on the growth inhibitory effect of spermidine on cultures of IMC cancer cells and L-1210 cells. IMC cancer cells were cultured in an RPMI 1640 medium containing 10% bovine fetus serum and 2-mercaptoethanol, and L-1210 cells in an MEM medium containing 10% calf serum, for 48 hours at 37° C. in 5% carbon dioxide. The number of cultured cells was counted with a Coulter counter to evaluate the degree of cell proliferation. Spermidine was added at the start of incubation."}, "IMC ascites tumor": {"test_system": "IMC ascites tumor", "assay": "Concomitant treatment with bleomycin and spermidine on IMC ascites tumor, survival", "assay_type": "in vivo, CDF1 mice", "procedure": "The pharmacological effects of spermidine will be illustrated by reference to the following experimental examples, in which spermidine was administered as its phosphate dissolved in physiological saline.\n(c) 1×10^6 IMC cancer cells were transplanted into CDF1 mice by intraperitoneal injection (Day 0). Bleomycin (5 mg/kg) was administered once daily for 5 consecutive days, and spermidine (5 mg/kg) was administered a total of 10 times on alternative days. The effect of concomitant treatment with spermidine and the anticancer drug was evaluated by considering the number of days that the mice survived."}, "[1]": {"test_system": "alternative pathway of the complement system", "assay": "Activation of the alternative pathway of the complement system (hemolysis of rabbit blood cells in normal human serum)", "assay_type": "biochemical", "conditions": "for % consumption of complement component C3: 37° C., 60 minutes", "procedure": "The effect of spermidine on the activation of the alternative pathway of the complement system was investigated in accordance with the method of Platts-Mills and Ishizaka (Platt-Mills, T. A. E. and Ishizaka, K.: Activation of the alternative pathway of human complement by rabbit cells. J. Immune. 113, 348-358, 1974).\nSpermidine was added to normal human serum in EGTA buffer solution, and the mixture was heated at 37° C. for 60 minutes. Rabbit blood cells were then added to the mixture. The degree of hemolysis was measured with a spectrophotometer at 412 nm to evaluate the effect of spermidine."}, "[2]": {"test_system": "interleukine-2 production (T blast cells)", "assay": "Interleukine-2 production by spleen cells, activity of promoting the proliferation of T blast cells", "assay_type": "cell-based, CDF1 mice", "conditions": "for activity at 0.001 µg/mL / activity at 0.01 µg/mL / activity at 0.1 µg/mL / activity at 1 µg/mL: Mus musculus, 24 h, control = 100, read-out: ^3 H-thymidine incorporation, T blast cells; for activity at 0.001 µg/mL: 0.001 μg/ml; for activity at 0.01 µg/mL: 0.01 μg/ml; for activity at 0.1 µg/mL: 0.1 μg/ml; for activity at 1 µg/mL: 1 μg/ml", "procedure": "The effect of spermidine on the production of interleukine was investigated in accordance with the method of Larsson et al. (Larsson, E-L: Mechanism of T cell activation II. Antigen- and lectin-dependent acquisition of responsiveness to TCGF is a nonmitogenic, active response of resting T cells. J. Immunol. 126, 1323-1326, 1981).\nSpermidine in a varying concentration was added to 1×10^7 spleen cells/ml of CDF1 mice. In the presence or absence of added concanavalin A (2 μg/ml), the stimulant of interleukine-2 production, the cells were then cultured in a cell incubator kept at 37° C. and at a carbon dioxide concentration of 5% for 24 hours. After completion of the incubation, α-methylmannoside was added to the supernatant to inactivate concanavalin A. The supernatant was collected to examine its interleukine-2 activity. The interleukine-2 activity was determined by the activity of promoting the proliferation of T blast cells and the activity of promoting the division of thymocytes. The latter two activities were determined by measuring ^3 H-thymidine incorporations to both types of cells."}, "L-1210 cells": {"test_system": "L-1210 cells", "assay": "Growth inhibitory effect on cultured L-1210 cells", "assay_type": "cell-based", "conditions": "Mus musculus, L1210, 48 hours, 37° C., read-out: concentration at which 50% of the original cells were inhibited from growth", "procedure": "as §1"}},
  "note": "Where two headings read alike, the source gives them in different places.",
  "data": [
    {"compound": "NCCCCNCCCN", "note": "[Spermidine, spermidine]", "values": [
      {"measurement": "IC50", "setting": "IMC cancer cells", "result": 2.4, "unit": "µg/mL"},
      {"measurement": "Survival rate on Day 60", "setting": "IMC ascites tumor; spermidine (5 mg/kg) alone", "result": "0/10"},
      {"measurement": "Survival period", "setting": "IMC ascites tumor; spermidine (5 mg/kg) alone, 10 times on alternative days", "result": "20.1 ± 2.3", "unit": "days"},
      {"measurement": "Increase of life span", "setting": "IMC ascites tumor; spermidine (5 mg/kg) alone, control = 100", "result": 114, "unit": "%"},
      {"measurement": "life span increase against the control group", "setting": "IMC ascites tumor; spermidine alone", "result": 14, "unit": "%"},
      {"measurement": "% consumption of complement component C3", "setting": "[1]; 2 mg/ml", "result": 0, "unit": "%"},
      {"measurement": "% consumption of complement component C3", "setting": "[1]; 4 mg/ml", "result": 66.1, "unit": "%"},
      {"measurement": "% consumption of complement component C3", "setting": "[1]; 8 mg/ml", "result": 83.6, "unit": "%"},
      {"measurement": "activation of the alternative pathway of complement", "setting": "[1]; 4 to 8 mg/ml", "result": "clearly activates the alternative pathway of complement"},
      {"measurement": "optimal concentration (interleukin-2 production)", "setting": "[2]", "result": 0.1, "unit": "µg/mL"},
      {"measurement": "activity at 0.001 µg/mL", "setting": "[2]; with Con A (2 μg/ml)", "result": 94, "unit": "%"},
      {"measurement": "activity at 0.001 µg/mL", "setting": "[2]; without Con A", "result": 137, "unit": "%"},
      {"measurement": "activity at 0.01 µg/mL", "setting": "[2]; with Con A (2 μg/ml)", "result": 153, "unit": "%"},
      {"measurement": "activity at 0.01 µg/mL", "setting": "[2]; without Con A", "result": 152, "unit": "%"},
      {"measurement": "activity at 0.1 µg/mL", "setting": "[2]; with Con A (2 μg/ml)", "result": 157, "unit": "%"},
      {"measurement": "activity at 0.1 µg/mL", "setting": "[2]; without Con A", "result": 166, "unit": "%"},
      {"measurement": "activity at 1 µg/mL", "setting": "[2]; with Con A (2 μg/ml)", "result": 152, "unit": "%"},
      {"measurement": "activity at 1 µg/mL", "setting": "[2]; without Con A", "result": 136, "unit": "%"},
      {"measurement": "IC50", "setting": "L-1210 cells", "result": 2.8, "unit": "µg/mL"}
    ]}
  ]
}
